Reference: PMC8069016, “Matrix Effects of the Hydroethanolic Extract of Calyces of Physalis peruviana L. on Rutin Pharmacokinetics in Wistar Rats Using Population Modeling” (Pharmaceutics, 2021)
Like-named read-outs stand apart in the source and are kept apart here. Blank lines part the entries; values can stand above or below the compound they belong to.

Assays:
[1] = Population pharmacokinetic modeling of rutin, intravenous administration; type: in vivo, Wistar rats; details: rutin i.v.; for k12 pop / k21 pop / k pop / V_pop: Table S1
Description: Population pharmacokinetic (PopPK) modeling for rutin and quercetin (produced by deconjugation of Q3OG and Q3OS) was performed using the software program Monolix 2019R1 (Lixoft®, Paris, France). One- and two-compartment structural models with first-order elimination were evaluated, and double first-order absorption was included for the oral dosing experiments. Analyses of the categorical covariates (pure rutin, extract, and doses) were performed, and those that were significant were added to the model (p < 0.05 for Pearson’s and Wald tests with stochastic approximation). Correlations between random effects of the parameters were also tested and added to the model, where appropriate (p < 0.05 for t-test). The final model, including the model of the residual error, was selected based on the observation of individual fit plots, Akaike’s information criteria (AIC) values, visual assessment of the observation-versus-prediction plot, the precision of the estimated parameters, and evaluation of the distribution of residuals. The model was internally validated by a visual predictive check (VPC) with 1000 simulated data.
The general model equation for the PK parameters was (2) Pi=Ppop+βcovariate n+ηi,p, where Pi is the individual parameter, Ppop is the population parameter, β is a parameter representing the variability due to the significant covariate n, and η(i,p) is the individual deviation from Ppop. According to the probability distribution of individual parameters, P in the equation could be expressed as logP or logitP (logP/((1 − P)).
Rutin (i.v.) from both sources was better fitted to a two-compartment model described by the following parameters: volume of the central compartment (V), k, and the distribution rate constants k12 and k21 (Figure 3a). The […] differential equations representing this model are expressed in Equations (3) and (4), where X1 and X2 are the amounts of the drug in the central and peripheral compartments, respectively. (3) dX1/dt=k21X2−k12+kX1 (4) dX2/dt=k12X1−k21X2
The population parameters in Table 4 correspond to those of pure rutin (for the dosage set) that was used as a reference in the analysis of covariates. A similarity was noted between the values for Vpop (0.0646 L/kg) and Vdz of pure rutin from the NCA, especially at 2.9 mg/kg (0.068 L/kg). The Clpop parameter, estimated from Vpop and kpop, was equivalent to the Cl of pure rutin from the NCA (in both cases 0.095 L/h/kg for the set of doses). […] Equations (5)–(8) describe the model of covariates, where η is the individual deviation from Ppop. (5) log(V/1−V)=log(Vpop/1−Vpop)+βVGEXT+ηV (6) logk=logkpop+βkGEXT+ηk (7) logk12=logk12pop (8) logk21=logk21pop

[2] = parameters: method as in doi:10.1016/j.tifs.2017.07.008, PMID 32162346, PMID 30614249; details: low solubility and low permeability; cited from earlier work
[3] = Pharmacokinetics of quercetin (deconjugated Q3OG and Q3OS) after oral administration, non-compartmental analysis; type: in vivo, Wistar rats; details: p.o.; only quercetin after deconjugation of Q3OG and Q3OS was measurable
Description: (§1) The PK studies of rutin, both pure and from the extract of calyces of P. peruviana, were carried out using 50 male Wistar rats (7–11 weeks old and 250–300 g) obtained from the animal facility of the Department of Pharmacy of the Universidad Nacional de Colombia. The animals were kept under constant temperature conditions (22 ± 1 °C), with light/dark cycles of 12 h. They were provided with water and food ad libitum and fasted for 12 h before the assays. This protocol was approved by the ethics committee of the science faculty (Act 06, 2015, project 40831, 22 June 2015).
For intravenous (i.v.) administration, the extract was prepared in sodium chloride solution (0.9% NaCl), vortexed, and sonicated 3–4 times for 15 min. Rutin was first dissolved in DMSO and then diluted in 0.9% NaCl. The clear solutions were administrated via the lateral tail vein of the rats. […] Rutin doses below 1.45 (i.v.) or 75 (p.o.) mg/kg could not show enough quantifiable analytical signals in blood plasma. […]
Blood plasma aliquots (50 µL) were added to a chrysin standard solution (internal standard (IS)) at a final concentration of 1000 ng/mL. […] Another 50 µL of blood plasma aliquots with the IS were treated with β-glucuronidase/arylsulfatase (120 Fishman units) in order to indirectly quantify the Q3OG and quercetin-3-O-sulfate (Q3OS) present in these samples by conversion into the parent quercetin (deconjugation). […]

[4] = Pharmacokinetics of rutin after intravenous administration, non-compartmental analysis; type: in vivo, Wistar rats; details: for AUC(0-inf) / MRT / half-life / clearance / Vd: male, Wistar, rat, iv; for Vd: read-out: Vdss
Description: as §1
For intravenous (i.v.) administration, the extract was prepared in sodium chloride solution (0.9% NaCl), vortexed, and sonicated 3–4 times for 15 min. Rutin was first dissolved in DMSO and then diluted in 0.9% NaCl. The clear solutions were administrated via the lateral tail vein of the rats. For the oral route (p.o.) experiments, the extract and rutin were suspended in water close to the time for oral gavage dosing. […] Rutin doses below 1.45 (i.v.) or 75 (p.o.) mg/kg could not show enough quantifiable analytical signals in blood plasma. For the extract, the doses were close to the active ones, according to previous studies by our group.
Samples of the animals’ blood (approximately 250 µL) were taken by puncture in the lateral tail vein and collected in heparinized tubes at times 0, 0.05, 0.166, 0.333, 0.5, 0.75, 1, 1.5, 2, 3, 4, 6, 8, and 12 h for the i.v. experiments and at times 0, 0.083, 0.25, […], 0.75, 1, 2, 3, 4, 6, 8, 10, 12, and 24 h for the p.o. experiments.
Blood plasma aliquots (50 µL) were added to a chrysin standard solution (internal standard (IS)) at a final concentration of 1000 ng/mL. Proteins were precipitated with methanol (1:2 v:v), and clear supernatants were obtained by centrifugation at 1200× g and at 4 °C for 15 min; 6 µL of each aliquot was used for instrumental analyses. Another 50 µL of blood plasma aliquots with the IS were treated with β-glucuronidase/arylsulfatase (120 Fishman units) in order to indirectly quantify the Q3OG and quercetin-3-O-sulfate (Q3OS) present in these samples by conversion into the parent quercetin (deconjugation). The deconjugation reaction was promoted by incubating the samples with the enzymes at pH 5.5 and 37 °C for 30 min. Reactions with the Q3OG standard (10,000 ng/mL) and blank blood plasma were included in each analysis set as positive and negative controls, respectively. After the reaction, proteins were precipitated, as indicated above.
Rutin and quercetin quantification was carried out by UHPLC-UV using a Chromaster RS chromatograph (Hitachi, Tokyo, Japan) and a Kinetex® EVO C18 column (2.6 µm, 100 × 2.1 mm; Phenomenex, Torrance, CA, USA) with an oven setting at 30 °C and a UV detector at 260 nm. The mobile phase consisted of 0.1% formic acid in water (A) and in acetonitrile (B), flowing at 0.5 mL/min in a gradient from 75% A to 65% A up to 9.3 min and 5 min of re-equilibration. The method was validated according to FDA guidelines.
The PK parameters of rutin and quercetin (produced by deconjugation of Q3OG and Q3OS) were first determined by non-compartmental analysis (NCA) using the software program Pkanalix 2019R1 (Lixoft®, Paris, France), set to linear trapezoidal integral mode. The area under the curve to infinity (AUC0-INF), clearance (Cl), volume of distribution at the steady state (Vdss), volume of distribution associated with the terminal phase (Vdz), first-order rate constant of elimination (k), terminal half-life (t1/2), mean residence time (MRT), maximum observed concentration (Cmax), and time of maximum observed concentration (tmax) were determined for the analytes detected for each intervention.

[5] = Stability in plasma (bioanalytical method validation); type: in vitro ADME, rats; details: Wistar, rat; plasma at acidic pH; 2 h at 4 °C, 30 d at −80 °C, and 3 freeze/thaw cycles
Description: Rutin and quercetin quantification was carried out by UHPLC-UV using a Chromaster RS chromatograph (Hitachi, Tokyo, Japan) and a Kinetex® EVO C18 column (2.6 µm, 100 × 2.1 mm; Phenomenex, Torrance, CA, USA) with an oven setting at 30 °C and a UV detector at 260 nm. The mobile phase consisted of 0.1% formic acid in water (A) and in acetonitrile (B), flowing at 0.5 mL/min in a gradient from 75% A to 65% A up to 9.3 min and 5 min of re-equilibration. The method was validated according to FDA guidelines. The UHPLC-UV method used for rutin and quercetin quantification in the blood plasma samples was selective and specific for these analytes and for the IS (Figure S2) and met all the criteria of the FDA guidelines. Linearity was described for the equations y = 0.00042x + 0.00910 (r^2 0.9996) and y = 0.00056 − 0.00767 (r^2 0.99980) for rutin and quercetin, respectively, at the concentration range from 100 to 10,000 ng/mL with a 1/x^2 weighting factor. Accuracy and precision were ≥85.6% (as recovery) and ≤7.2% (as variation coefficient), respectively, for both analytes, and these parameters were not affected by dilutions of over-concentrated samples up to 20 times the upper limit of quantification (recovery ≥ 86.3%).

[6] = run Pure rutin and extract model: final model
[7] = run Pure rutin and extract model: model of covariate 1
[8] = run Pure rutin: one compartment model, first order elimination
[9] = run Pure rutin: selection of model error and final model
[10] = run Pure rutin: two-compartment model, first order elimination
[11] = two-compartment popPK model, pure rutin (dosage set) as reference
[12] = rutin in plasma, pure rutin i.v. 1.45 mg/kg
[13] = rutin in plasma, pure rutin i.v. 2.9 mg/kg

Compound: C[C@@H]1O[C@@H](OC[C@H]2O[C@@H](Oc3c(-c4ccc(O)c(O)c4)oc4cc(O)cc(O)c4c3=O)[C@H](O)[C@@H](O)[C@@H]2O)[C@H](O)[C@H](O)[C@H]1O [Rutin, quercetin-3-O-rutinoside]
k12 pop [1, 6]: 2.6 h⁻¹
k21 pop [1, 6]: 13.6 h⁻¹
k pop [1, 6]: 1.47 h⁻¹
V_pop [1, 7]: 5.9 e-5
k12 pop [1, 7]: 2.62 h⁻¹
k21 pop [1, 7]: 9.67 h⁻¹
k pop [1, 7]: 1.58 h⁻¹
V_pop [1, 8]: 7.81 e−5
k pop [1, 8]: 1.22 h⁻¹
V_pop [1, 9]: 6.4e -5
k12 pop [1, 9]: 2.5 h⁻¹
k21 pop [1, 9]: 16.8 h⁻¹
k pop [1, 9]: 1.48 h⁻¹
V_pop [1, 10]: 5.89e -5
k12 pop [1, 10]: 5.24 h⁻¹
k21 pop [1, 10]: 19.4 h⁻¹
k pop [1, 10]: 1.61 h⁻¹
Clpop ([1]; estimated from Vpop and kpop, set of doses): 1.58 mL/min/kg
Vpop (volume of the central compartment) [1, 11]: 0.0646 L/kg
k12_pop [1, 11]: 2.6 h⁻¹
k21_pop [1, 11]: 13.6 h⁻¹
kpop (first-order rate constant of elimination) [1, 11]: 1.47 h⁻¹
biopharmaceutical classification system class [2]: class IV
plasma concentrations of rutin or free quercetin after oral administration [3]: did not allow measurable plasma concentrations of rutin or free quercetin
AUC(0-inf) [4, 12]: 14900 ng·h/mL
MRT [4, 12]: 64.8 ± 10.6 min
half-life [4, 12]: 39.6 ± 7.8 min
clearance ([4]; rutin in plasma, pure rutin i.v. 1.45 mg/kg, read-out: Cl (converted)): 1.67 mL/min/kg
Vd [4, 12]: 0.11 ± 0.0306 L/kg
AUC(0-inf) [4, 13]: 33900 ng·h/mL
MRT [4, 13]: 48.6 ± 3.18 min
half-life [4, 13]: 32.4 ± 3.72 min
clearance ([4]; rutin in plasma, pure rutin i.v. 2.9 mg/kg, read-out: Cl (converted)): 1.5 mL/min/kg
Vd [4, 13]: 0.07 ± 0.009 L/kg
clearance ([4]; plasma, rutin i.v., pure rutin, set of doses, read-out: Cl from the NCA (converted)): 1.58 mL/min/kg
AUC/dose × 10^−3 [4, 12]: 10,243.52 ± 1743.478 h/L
Vdz [4, 12]: 0.096 ± 0.027 L/kg
k [4, 12]: 1.08 ± 0.195 h⁻¹
AUC/dose × 10^−3 [4, 13]: 11,701.24 ± 992.522 h/L
k [4, 13]: 1.29 ± 0.159 h⁻¹
Vdz ([4]; rutin in plasma, pure rutin i.v. 2.9 mg/kg, 2.9 mg/kg): 0.068 ± 0.012 L/kg
Vdz ([4]; rutin in plasma, pure rutin i.v. 2.9 mg/kg, listed as pure rutin, 2.9 mg/kg): 0.068 L/kg

recovery [5]: ≥ 87.8%
Compound: O=c1c(O)c(-c2ccc(O)c(O)c2)oc2cc(O)cc(O)c12 [quercetin]
